The record followed here is US12344597B2, “Alkoxy-substituted pyridinyl derivatives as LPA1 receptor antagonists and their use in the treatment of fibrosis” (IDORSIA PHARMACEUTICALS LTD, priority 2018, dated 2025).

Each structure is given as a SMILES string.

human LPA1 receptor, sequence (Q92633 whole entry, the tested form may be a part): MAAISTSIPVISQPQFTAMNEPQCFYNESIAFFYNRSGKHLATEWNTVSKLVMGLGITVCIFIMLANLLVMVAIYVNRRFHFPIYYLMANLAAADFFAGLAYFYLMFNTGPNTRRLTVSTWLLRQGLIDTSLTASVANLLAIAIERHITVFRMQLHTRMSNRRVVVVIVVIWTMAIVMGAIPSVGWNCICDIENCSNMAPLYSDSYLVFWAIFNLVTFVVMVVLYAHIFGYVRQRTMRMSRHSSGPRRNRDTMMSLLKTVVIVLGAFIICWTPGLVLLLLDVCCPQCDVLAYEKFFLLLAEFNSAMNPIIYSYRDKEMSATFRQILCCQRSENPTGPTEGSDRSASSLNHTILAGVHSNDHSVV

This assay addresses human LPA1 receptor (Homo sapiens (Human), UniProt Q92633). Nature of the assay: Beta-arrestin recruitment assay to determine IC50 values for human LPAR1. In kind it is cell-based. As to conditions: antagonist mode, Tango EDG2-bla U2OS cells, LPA 18:1 500 nM final. The method, boiled down:
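Antagonist IC50 = concentration giving 50% inhibition of maximal LPA response. Read-out is beta-lactamase reporter activity after arrestin-protease recruitment in U2OS cells bearing LPA1-TEV-Gal4-VP16 construct; cells pre-incubated 20 h, 37 °C, 5% CO2.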
`Cc1ccc(NC(=O)C2(c3ccccc3C(C)C)CN(C(=O)CNCC(C)(C)C(=O)O)C2)c(OC(F)F)n1` [Ex 45, 3-((2-(3-((2-(difluoromethoxy)-6-methylpyridin-3-yl)carbamoyl)-3-(2-isopropylphenyl)azetidin-1-yl)-2-oxoethyl)amino)-2,2-dimethylpropanoic acid] yielded an IC50 of 63 nM. In the case of `Cc1ccc(NC(=O)C2(c3ccccc3C(C)C)CN(C(=O)CNCC3(C(=O)O)CC3)C2)c(OC(F)F)n1` [Ex 46, 1-(((2-(3-((2-(difluoromethoxy)-6-methylpyridin-3-yl)carbamoyl)-3-(2-isopropylphenyl)azetidin-1-yl)-2-oxoethyl)amino)methyl)cyclopropane-1-carboxylic acid], the IC50 turned out to be 100 nM. The result for `Cc1ccc(NC(=O)C2(c3ccccc3C(C)C)CN(C(=O)CNC(C)(C)CC(=O)O)C2)c(OC(F)F)n1` [Ex 47, 3-((2-(3-((2-(difluoromethoxy)-6-methylpyridin-3-yl)carbamoyl)-3-(2-isopropylphenyl)azetidin-1-yl)-2-oxoethyl)amino)-3-methylbutanoic acid] reads 95 nM; that for `Cc1ccc(NC(=O)C2(c3ccccc3C(C)C)CN(C(=O)CN3CCC(C(=O)O)CC3)C2)c(OC(F)F)n1` [Ex 48, 1-(2-(3-((2-(difluoromethoxy)-6-methylpyridin-3-yl)carbamoyl)-3-(2-isopropylphenyl)azetidin-1-yl)-2-oxoethyl)piperidine-4-carboxylic acid], 103 nM; that for `Cc1ccc(NC(=O)C2(c3ccccc3C(C)C)CN(C(=O)[C@H]3CC[C@@H](C(=O)O)CC3)C2)c(OC(F)F)n1` [Ex 50, (1s,4s)-4-(3-((2-(difluoromethoxy)-6-methylpyridin-3-yl)carbamoyl)-3-(2-isopropylphenyl)azetidine-1-carbonyl)cyclohexane-1-carboxylic acid], 68 nM. The value for `Cc1ccc(NC(=O)C2(c3ccccc3C(C)C)CN(C(=O)[C@@H]3CCC[C@H](C(=O)O)C3)C2)c(OC(F)F)n1` [Ex 51, (1S,3R)-3-(3-((2-(difluoromethoxy)-6-methylpyridin-3-yl)carbamoyl)-3-(2-isopropylphenyl)azetidine-1-carbonyl)cyclohexane-1-carboxylic acid] was 80 nM; that for `Cc1ccc(NC(=O)C2(c3ccccc3C(C)C)CN(C(=O)CC3CCC(C(=O)O)CC3)C2)c(OC(F)F)n1` (centres unmarked) [Ex 52, 4-(2-(3-((2-(difluoromethoxy)-6-methylpyridin-3-yl)carbamoyl)-3-(2-isopropylphenyl)azetidin-1-yl)-2-oxoethyl)cyclohexane-1-carboxylic acid] was 51 nM. As for `Cc1ccc(NC(=O)C2(c3ccccc3C(C)C)CN(CCC(C)(C)C(=O)NS(C)(=O)=O)C2)c(OC(F)F)n1` [Ex 53, N-(2-(difluoromethoxy)-6-methylpyridin-3-yl)-1-(3,3-dimethyl-4-(methylsulfonamido)-4-oxobutyl)-3-(2-isopropylphenyl)azetidine-3-carboxamide], half-maximal inhibition (IC50) required 17 nM. `COCCN(CC(=O)OC)CC(=O)N1CC(C(=O)Nc2ccc(C)nc2OC(F)F)(c2ccccc2C(C)C)C1` [Ex 54, methyl N-(2-(3-((2-(difluoromethoxy)-6-methylpyridin-3-yl)carbamoyl)-3-(2-isopropylphenyl)azetidin-1-yl)-2-oxoethyl)-N-(2-methoxyethyl)glycinate]: it took 69 nM to reach half-maximal inhibition (IC50).

Compound `COCCN(CC(=O)O)CC(=O)N1CC(C(=O)Nc2ccc(C)nc2OC(F)F)(c2ccccc2C(C)C)C1` [Ex 55] returned an IC50 of 44 nM. The result for `COC(=O)CNCC(=O)N1CC(C(=O)Nc2ccc(C)nc2OC(F)F)(c2ccccc2C(C)C)C1` [Ex 56, methyl (2-(3-((2-(difluoromethoxy)-6-methylpyridin-3-yl)carbamoyl)-3-(2-isopropylphenyl)azetidin-1-yl)-2-oxoethyl)glycinate] reads 8 nM; that for `CCN(CC(=O)O)CC(=O)N1CC(C(=O)Nc2ccc(C)nc2OC(F)F)(c2ccccc2C(C)C)C1` [Ex 58, N-(2-(3-((2-(difluoromethoxy)-6-methylpyridin-3-yl)carbamoyl)-3-(2-isopropylphenyl)azetidin-1-yl)-2-oxoethyl)-N-ethylglycine], 48 nM; that for `CCCOc1nc(C)ccc1NC(=O)C1(c2ccccc2C(C)C)CN(S(N)(=O)=O)C1` [Ex 59, 3-(2-isopropylphenyl)-N-(6-methyl-2-propoxypyridin-3-yl)-1-sulfamoylazetidine-3-carboxamide], 270 nM.

In turn, `Cc1ccc(NC(=O)C2(c3ncccc3C(C)C)CN(C(=O)CCC(=O)O)C2)c(OC(F)F)n1` [Ex 61, 4-(3-((2-(difluoromethoxy)-6-methylpyridin-3-yl)carbamoyl)-3-(3-isopropylpyridin-2-yl)azetidin-1-yl)-4-oxobutanoic acid] yielded a half-maximal inhibitory concentration (IC50) of 70 nM. The value for `Cc1ccc(NC(=O)C2(c3ncccc3C(C)C)CN(C(=O)NC3CC3)C2)c(OC(F)F)n1` [Ex 63, N1-cyclopropyl-N3-(2-(difluoromethoxy)-6-methylpyridin-3-yl)-3-(3-isopropylpyridin-2-yl)azetidine-1,3-dicarboxamide] was 8 nM; that for `Cc1ccc(NC(=O)C2(c3ncccc3C(C)C)CN(c3nc(C)ncc3F)C2)c(OC(F)F)n1` [Ex 64, N-(2-(difluoromethoxy)-6-methylpyridin-3-yl)-1-(5-fluoro-2-methylpyrimidin-4-yl)-3-(3-isopropylpyridin-2-yl)azetidine-3-carboxamide] was 15 nM. The value for `Cc1ccc(NC(=O)C2(c3ncccc3C(C)C)CN(c3nc(C)ccc3F)C2)c(OC(F)F)n1` [Ex 65, N-(2-(difluoromethoxy)-6-methylpyridin-3-yl)-1-(3-fluoro-6-methylpyridin-2-yl)-3-(3-isopropylpyridin-2-yl)azetidine-3-carboxamide] was 37 nM; that for `Cc1ccc(NC(=O)C2(c3nccnc3C(C)C)CNC2)c(OC(F)F)n1` [Ex 68, N-(2-(difluoromethoxy)-6-methylpyridin-3-yl)-3-(3-isopropylpyrazin-2-yl)azetidine-3-carboxamide] was 7620 nM; that for `Cc1ccc(NC(=O)C2(c3nccnc3C(C)C)CN(S(N)(=O)=O)C2)c(OC(F)F)n1` [Ex 69, N-(2-(difluoromethoxy)-6-methylpyridin-3-yl)-3-(3-isopropylpyrazin-2-yl)-1-sulfamoylazetidine-3-carboxamide] was 27 nM.

For `COc1cc(Cl)cnc1NC(=O)C1(c2ccccc2C(C)C)CNC1` [Ex 70, N-(5-chloro-3-methoxypyridin-2-yl)-3-(2-isopropylphenyl)azetidine-3-carboxamide], the IC50 was found to be 866 nM. The value for `COc1cc(Br)cnc1NC(=O)C1(c2ccccc2C(C)C)CNC1` [Ex 71, N-(5-bromo-3-methoxypyridin-2-yl)-3-(2-isopropylphenyl)azetidine-3-carboxamide] was 564 nM. Compound `CC(C)c1ccccc1C1(C(=O)Nc2ncc(Cl)cc2OC(F)F)CNC1` [Ex 72, N-(5-chloro-3-(difluoromethoxy)pyridin-2-yl)-3-(2-isopropylphenyl)azetidine-3-carboxamide] showed an IC50 of 15 nM. `CC(C)c1ccccc1C1(C(=O)Nc2ncc(Br)cc2OC(F)F)CNC1` [Ex 73, N-(5-bromo-3-(difluoromethoxy)pyridin-2-yl)-3-(2-isopropylphenyl)azetidine-3-carboxamide] registered a half-maximal inhibitory concentration (IC50) of 10 nM. Compound `COc1cnc(NC(=O)C2(c3ccccc3C(C)C)CNC2)c(OC)c1` [Ex 75, N-(3,5-dimethoxypyridin-2-yl)-3-(2-isopropylphenyl)azetidine-3-carboxamide] showed a half-inhibitory concentration (IC50) of 4380 nM. The result for `O=C(Nc1ncc(Cl)cc1OC(F)F)C1(c2ccccc2C2CCCC2)CNC1` [Ex 76, N-(5-chloro-3-(difluoromethoxy)pyridin-2-yl)-3-(2-cyclopentylphenyl)azetidine-3-carboxamide] reads 19 nM. As to `CC(C)c1cccnc1C1(C(=O)Nc2ncc(Cl)cc2OC(F)F)CNC1` [Ex 77, N-(5-chloro-3-(difluoromethoxy)pyridin-2-yl)-3-(3-isopropylpyridin-2-yl)azetidine-3-carboxamide], half-maximal inhibition (IC50) required 1030 nM.

As for `COC(=O)C(C)(C)CCN1CC(C(=O)Nc2ncc(Cl)cc2OC(F)F)(c2ccccc2C(C)C)C1` [Ex 78-1, methyl 4-(3-((5-chloro-3-(difluoromethoxy)pyridin-2-yl)carbamoyl)-3-(2-isopropylphenyl)azetidin-1-yl)-2,2-dimethylbutanoate], the half-maximal inhibitory concentration (IC50) was 457 nM. `CC(C)c1ccccc1C1(C(=O)Nc2ncc(Cl)cc2OC(F)F)CN(CCC(C)(C)C(=O)O)C1` [Ex 78-2, 4-(3-((5-chloro-3-(difluoromethoxy)pyridin-2-yl)carbamoyl)-3-(2-isopropylphenyl)azetidin-1-yl)-2,2-dimethylbutanoic acid] had an IC50 of 17 nM. The result for `CC(C)c1ccccc1C1(C(=O)Nc2ncc(Br)cc2OC(F)F)CN(CCC(C)(C)C(=O)O)C1` [Ex 78-3, 4-(3-((5-bromo-3-(difluoromethoxy)pyridin-2-yl)carbamoyl)-3-(2-isopropylphenyl)azetidin-1-yl)-2,2-dimethylbutanoic acid] reads 13 nM; that for `COC(=O)C(C)(C)CC(=O)N1CC(C(=O)Nc2ncc(Br)cc2OC(F)F)(c2ccccc2C(C)C)C1` [Ex 79-1, Methyl 4-(3-((5-bromo-3-(difluoromethoxy)pyridin-2-yl)carbamoyl)-3-(2-isopropylphenyl)azetidin-1-yl)-2,2-dimethyl-4-oxobutanoate], 65 nM; that for `CC(C)c1ccccc1C1(C(=O)Nc2ncc(Cl)cc2OC(F)F)CN(C(=O)CC(C)(C)C(=O)O)C1` [Ex 79-3, 4-(3-((5-chloro-3-(difluoromethoxy)pyridin-2-yl)carbamoyl)-3-(2-isopropylphenyl)azetidin-1-yl)-2,2-dimethyl-4-oxobutanoic acid], 17 nM.

`COc1cc(Cl)cnc1NC(=O)C1(c2ccccc2C(C)C)CN(C(=O)CC(C)(C)C(=O)O)C1` [Ex 79-4, 4-(3-((5-chloro-3-methoxypyridin-2-yl)carbamoyl)-3-(2-isopropylphenyl)azetidin-1-yl)-2,2-dimethyl-4-oxobutanoic acid] showed a half-inhibitory concentration (IC50) of 123 nM.

Broadly, the IC50 is the concentration that inhibits the measured activity by half. Low readings indicate greater potency, high ones weaker potency.
